Reference: patent US8586572B2, “3-phenyl-azetidine derivatives useful as modulators of cortical catecholaminergic neurotransmission” (Integrative Research Laboratories Sweden AB, priority 2008, dated 2013)
Counter-ions that a name gives are not always drawn.

What was measured:
[1] = system: extracellular NA, DA and 5-HT in striatum; experiment: Microdialysis in awake and freely moving rats, dorsal striatum; format: in vivo, rat; conditions: 50 μmol/kg s.c., awake freely moving rats; for DA Stri ± SEM, maximum effect compared to baseline values: dopamine in striatum dialysate; for 5-HT Stri ± SEM, maximum effect compared to baseline values: serotonin in striatum dialysate
Source text: (§1) Male Sprague-Dawley rats weighing 220-320 g were used throughout the experiments. Before the experiment the animals were group housed, five animals in each cage, with free access to water and food. The animals were housed at least one week after arrival prior to surgery and use in the experiments. Each rat was used only once for microdialysis.
(§2) We use a modified version (Waters et al., 1994) of the I-shaped probe (Santiago and Westerink, 1990). The dialysis membrane we use is the AN69 poly-acrylonitrile/sodiummethalylsulfonate copolymer (HOSPAL; o.d./i.d. 310/220 μm: Gambro, Lund, Sweden). In the dorsal striatum we use probes with an exposed length of 3 mm of dialysis membrane and in the prefrontal cortex the corresponding length is 2.5 mm. The rats were operated under isoflurane inhalationanesthesia while mounted into a Kopf stereotaxic instrument. Co-ordinates were calculated relative to bregma; dorsal striatum AP +1, ML ±2.6, DV −6.3; Pf cortex, AP +3.2, 8° ML ±1.2, DV −4.0 according to (Paxinos & Watson, 1986). The dialysis probe was positioned in a burr hole under stereotaxic guidance and cemented with phosphatine dental cement.
(§3) The rats were housed individually in cages for 48 h before the dialysis experiments, allowing them to recover from surgery and minimizing the risk of drug interactions with the anaesthetic during the following experiments. During this period the rats had free access to food and water. On the day of experiment the rats were connected to a micro perfusion pump via a swiwel and were replaced in the cage where they could move freely within its confinements. The perfusion medium was a Ringer's solution containing in mmol/l: NaCl; 140, CaCl2; 1.2, KCl; 3.0, MgCl2; 1.0 and ascorbic acid; 0.04 according to (Moghaddam & Bunney, 1989). The pump was set to a perfusion speed of 2 μl/min and 40 μl samples were collected every 20 min. Each sample was analyzed at two HPLC systems. On an autoinjector (CMA 200) with a 10-port valve (Valco C10WE), holding two sample loops in series (4 μl and 20 μl), each brain dialysate sample is loaded in both loops simultaneously. At injection the 20 μl sample is introduced into a column switching system (reverse-phase combined with reverse-phase ion-pairing) for dopamine (DA), noradrenaline (NA), normetanephrine (NM), 3-methoxytyramine (3-MT) and serotonin (5-hydroxytryptamine, 5-HT) determination, while the 4 μl sample is introduced on a reverse-phase column for the chromatography of the acidic monoamine metabolites 3,4-di-hydroxyphenylacetic acid (DOPAC), homovanillic acid (HVA) and 5-hydroxyindoleacetic acid (5-HIAA). The currents generated by the two EC detectors are converted to digital data and evaluated using Chromeleon software (Dionex) on a PC. The method sample turn over time was 4.5 min and two parallel experiments are normally analyzed simultaneously on the system.
(§4) After the experiment the rats were uncoupled from the perfusion pump and decapitated. Their brains were rapidly taken out and fixed in Neo-fix solution (Kebolab, Sweden) for subsequent inspection of probe localisation. The Animal Ethics Committee in Göteborg, Sweden approved the procedures applied in these experiments.
(§5) The microdialysis was performed in awake and freely moving rats.
(§6) Dopamine=DA; Norepinephrine=NA; Serotonin=5-HT; Stri=Striatum; PFC=Prefrontal Cortex.

[2] = system: extracellular NA, DA and 5-HT in prefrontal cortex; experiment: Microdialysis in awake and freely moving rats, prefrontal cortex; format: in vivo, rat; conditions: 50 μmol/kg s.c., awake freely moving rats; for DA PFC ± SEM, maximum effect compared to baseline values: dopamine in prefrontal cortex dialysate; for NA PFC ± SEM, maximum effect compared to baseline values: norepinephrine in prefrontal cortex dialysate; for 5-HT PFC ± SEM, maximum effect compared to baseline values: serotonin in prefrontal cortex dialysate
Source text: as §1, §2, §3, §4, §5, §6

| SMILES | DA Stri ± SEM, maximum effect compared to baseline values [1] | 5-HT Stri ± SEM, maximum effect compared to baseline values [1] | DA PFC ± SEM, maximum effect compared to baseline values [2] | NA PFC ± SEM, maximum effect compared to baseline values [2] | 5-HT PFC ± SEM, maximum effect compared to baseline values [2] | melting point [°C] | also measured |
| --- | --- | --- | --- | --- | --- | --- | --- |
| CCN1CC(OC)(c2cccc(F)c2F)C1 [Example 9, 3-(2,3-difluorophenyl)-1-ethyl-3-methoxyazetidine] | 122 ± 12% of control | 134 ± 22% of control | 215 ± 54% of control | 298 ± 79% of control | 169 ± 65% of control | – | – |
| CCN1CC(O)(c2cccc(Cl)c2F)C1 (as salt: fumaric acid salt) | – | – | – | – | – | 172 to 173 | – |
| CCN1CC(O)(c2ccc(F)c(F)c2)C1 (as salt: fumaric acid salt) [Example 2, 3-(3,4-difluorophenyl)-1-ethylazetidin-3-ol] | – | – | – | – | – | 177 to 179 | – |
| CCN1CC(O)(c2cc(F)cc(Cl)c2)C1 (as salt: fumaric acid salt) | – | – | – | – | – | 166 to 168 | – |
| CCN1CC(O)(c2ccc(F)c(F)c2)C1 [Example 2, 3-(3,4-difluorophenyl)-1-ethylazetidin-3-ol] | 112% of control | 162% of control | 309 ± 62% of control | 397 ± 59% of control | 182 ± 33% of control | – | – |
| CCN1CC(O)(c2cccc(F)c2F)C1 [Example 1, 3-(2,3-difluorophenyl)-1-ethylazetidin-3-ol] | 219 ± 113% of control | 113 ± 13% of control | 211 ± 61% of control | 438 ± 91% of control | 130 ± 11% of control | – | NA Stri ± SEM, maximum effect compared to baseline values ([1]; norepinephrine in striatum dialysate): 261 ± 151% of control |
| CCN1CC(OC)(c2cccc(F)c2F)C1 (as salt: oxalic acid salt) [Example 9, 3-(2,3-difluorophenyl)-1-ethyl-3-methoxyazetidine] | – | – | – | – | – | 147 to 148 | – |
| COC1(c2cccc(F)c2F)CNC1 (as salt: oxalic acid salt) [Example 8, 3-(2,3-difluorophenyl)-3-methoxyazetidine] | – | – | – | – | – | 141 to 142 | – |
| CCN1CC(O)(c2cc(F)cc(F)c2)C1 (as salt: fumaric acid salt) | – | – | – | – | – | 140 to 141 | – |
| CCN1CC(O)(c2cccc(F)c2F)C1 (as salt: fumaric acid salt) [Example 1, 3-(2,3-difluorophenyl)-1-ethylazetidin-3-ol] | – | – | – | – | – | 148 to 150 | – |
